The source of these data is ChEMBL document CHEMBL1221404, “Caylobolide B, a macrolactone from symplostatin 1-producing marine cyanobacteria Phormidium spp. from Florida” (J Nat Prod, 2010).

What all share (assay type): functional, cell-based
For one assay, the system named is HCT-116. Briefly: Cytotoxicity against human HCT116 cells.
Another assay concerns HeLa. Briefly: Cytotoxicity against human HeLa cells after 48 hrs by MTT assay. For orientation: Tetrazolium assays rely on reduction of a dye to a coloured formazan, in cell work by metabolically active cells.
The next assay concerns HT-29. The assay is described as follows: Cytotoxicity against human HT-29 cells after 48 hrs by MTT assay. Particulars: HT-29, 48 h; call rule not given here.

For the compound `CCCCC(C)C1C[C@@H](O)CCC[C@H](O)C[C@@H](O)C[C@@H](O)CCCC(O)CCCC(O)CCCC(O)CCCC(O)CC(O)CCC/C(C)=C/C(=O)O1` (some centres undefined) [CAYLOBOLIDE A], the AC50 entry in the assay with HCT-116 is “Active”.

Regarding `CCCCC(C)C1CC(O)CCC[C@H](O)C[C@@H](O)C[C@@H](O)CCCC(O)CCCC(O)CCCC(O)CCC[C@@H](O)C[C@@H](O)CCC/C(C)=C/C(=O)O1` (some centres undefined) [CAYLOBOLIDE B], the half-inhibitory concentration (IC50) was found to be 12.2 µM with HeLa and 4.5 µM with HT-29.

In the assay with HT-29, `CC[C@H](C)[C@@H]([C@@H](CC(=O)N1CCC[C@H]1[C@H](OC)[C@@H](C)C(=O)N[C@@H](Cc1ccccc1)c1nccs1)OC)N(C)C(=O)[C@@H](NC(=O)[C@H]([C@@H](C)CC)N(C)C)C(C)C` [SYMPLOSTATIN 1] returned an IC50 of 0.0015 µM.

As a reminder, the IC50 is the concentration needed to halve the response being measured. A higher IC50 goes with lower potency.
